# Laboratory results reported in patent US9963463B2, “Urea-substituted indanes as P38 map kinase inhibitors” (TORRENT PHARMACEUTICALS LIMITED, priority 2014, dated 2018).
# Biological target: T1, purified recombinant human p38 alpha MAPK (Homo sapiens, UniProt Q16539)
# T1 construct: purchased Millipore, USA
# Assay: Inhibition of p38 alpha MAPK activity, TR-FRET kinase assay
# Assay type: biochemical
# Conditions: for inhibition at 1 µM / P38α Inhibition: Concentration 1 μM
# Experimental: Inhibition of p38 Alpha MAPK Activity: Time-Resolved Fluorescence Resonance Energy Transfer Kinase Standard Assay (TR-FRET Assay)
# Compounds of present invention at various concentrations were premixed with DMSO. The experiment was initiated by mixing 0.5%-1.0% DMSO as vehicle/compounds with purified recombinant human p38 alpha MAPK (Millipore, USA) in the wells and 15 min incubation at room temperature. Thereafter, 30 nM of Biotinylated GST-ATF2 (Activation transcription Factor2) and 100 μM of ATP were added in to the wells containing reaction mixture, followed by reincubation for 60 minutes at RT. Reaction was terminated by addition of 10 mM of EDTA and detection reagent containing anti-phosphotheronine ATF2 antibody (PerkinElmer®, USA) labeled with europium chelate and APC (Allophycocyanin) labeled streptavidin, into the reaction mixture which was further incubated for 60 minutes at room temperature. The degree of phosphorylation of the substrate (GST-ATF2) was measured using Envision multimode reader (PerkinElmer®). Percentage inhibition of p38 kinase activity was calculated by determining ratio of specific europium 665 nm energy transfer signal to reference 615 nm signal.
# T1 sequence (Q16539 whole entry): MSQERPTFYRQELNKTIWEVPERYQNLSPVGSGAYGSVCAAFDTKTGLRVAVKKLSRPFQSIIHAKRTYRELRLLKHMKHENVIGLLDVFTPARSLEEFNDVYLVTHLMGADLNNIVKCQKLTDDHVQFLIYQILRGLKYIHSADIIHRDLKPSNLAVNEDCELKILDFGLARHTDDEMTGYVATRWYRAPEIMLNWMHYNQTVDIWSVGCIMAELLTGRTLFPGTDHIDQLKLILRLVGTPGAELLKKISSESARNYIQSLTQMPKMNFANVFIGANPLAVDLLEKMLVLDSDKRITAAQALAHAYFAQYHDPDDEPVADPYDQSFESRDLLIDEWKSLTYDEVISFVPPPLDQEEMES
SMILES,inhibition at 1 µM (read-out: P38α Inhibition) [%],other results
"COc1ccccc1-c1nnc2n1CCN(C(=O)COc1ccc(NC(=O)Nc3cc(C(C)(C)C)nn3-c3ccc(O)c(Cl)c3)c3c1CCC3)C2 [Compound 8, 1-[3-tert-butyl-1-(3-chloro-4-hydroxyphenyl)-1H-pyrazol-5-yl]-3-(7-{2-[3-(2-methoxyphenyl)-5,6-dihydro[1,2,4]triazolo[4,3-a]pyrazin-7(8H)-yl]-2-oxoethoxy}-2,3-dihydro-1H-inden-4-yl)urea]",80 to 100,–
"Cc1ccc(-n2nc(C(C)(C)C)cc2NC(=O)Nc2ccc(OCCN3CCn4c(nnc4-c4cccc(Cl)c4O)C3)c3c2CCC3)cc1 [Compound 29, 1-[3-tert-butyl-1-(4-methylphenyl)-1H-pyrazol-5-yl]-3-(7-{2-[3-(3-chloro-2-hydroxyphenyl)-5,6-dihydro[1,2,4]triazolo[4,3-a]pyrazin-7(8H)-yl]ethoxy}-2,3-dihydro-1H-inden-4-yl)urea]",80 to 100,–
"CC(C)(C)c1ccc(-n2nc(C(C)(C)C)cc2NC(=O)Nc2ccc(OCC(=O)N3CCn4c(nnc4C(F)(F)F)C3)c3c2CCC3)cc1 [Compound 2, 1-[3-tert-butyl-1-(4-tert-butylphenyl)-1H-pyrazol-5-yl]-3-(7-{2-oxo-2-[3-(trifluoromethyl)-5,6-dihydro[1,2,4]triazolo[4,3-a]pyrazin-7(8H)-yl]ethoxy}-2,3-dihydro-1H-inden-4-yl)urea]",20 to 40,–
"Cc1ccc(-n2nc(C(C)(C)C)cc2NC(=O)Nc2ccc(OCCN3CCN(Cc4ccccc4)C(=O)C3)c3c2CCC3)cc1 [Compound 16, 1-{7-[2-(4-benzyl-3-oxopiperazin-1-yl)ethoxy]-2,3-dihydro-1H-inden-4-yl}-3-[3-tert-butyl-1-(4-methylphenyl)-1H-pyrazol-5-yl]urea]",80 to 100,–
"CC(C)(C)c1cc(NC(=O)Nc2ccc(OCCN3CCn4c(nnc4-c4ccc(O)cc4O)C3)c3c2CCC3)n(-c2ccc(O)c(Cl)c2)n1 [Compound 63, 1-[3-tert-butyl-1-(3-chloro-4-hydroxyphenyl)-1H-pyrazol-5-yl]-3-(7-{2-[3-(2,4-dihydroxyphenyl)-5,6-dihydro[1,2,4]triazolo[4,3-a]pyrazin-7(8H)-yl]ethoxy}-2,3-dihydro-1H-inden-4-yl)urea]",–,"inhibition at 0.1 µM (Concentration 100 nM, read-out: P38α Inhibition): 60 to 80%"
"COc1ccccc1-c1nnc2n1CCN(CCOc1ccc(NC(=O)Nc3cc(C(C)(C)C)nn3-c3ccc(C)cc3)c3c1CCC3)C2 [Compound 14, 1-[3-tert-butyl-1-(4-methylphenyl)-1H-pyrazol-5-yl]-3-(7-{2-[3-(2-methoxyphenyl)-5,6-dihydro[1,2,4]triazolo[4,3-a]pyrazin-7(8H)-yl]ethoxy}-2,3-dihydro-1H-inden-4-yl)urea]",80 to 100,–
"Cc1ccc(-n2nc(C(C)(C)C)cc2NC(=O)Nc2ccc(OCCN3CCn4c(nnc4-c4ccccc4OCCN4CCOCC4)C3)c3c2CCC3)cc1 [Compound 20, 1-[3-tert-butyl-1-(4-methylphenyl)-1H-pyrazol-5-yl]-3-(7-{2-[3-{2-[2-(morpholin-4-yl)ethoxy]phenyl}-5,6-dihydro[1,2,4]triazolo[4,3-a]pyrazin-7(8H)-yl]ethoxy}-2,3-dihydro-1H-inden-4-yl)urea]",80 to 100,–
"Cc1ccc(-n2nc(C(C)(C)C)cc2NC(=O)Nc2ccc(OCCCN3CCN(CC4CC4)C(=O)C3)c3c2CCC3)cc1 [Compound 28, 1-[3-tert-butyl-1-(4-methylphenyl)-1H-pyrazol-5-yl]-3-(7-{3-[4-(cyclopropylmethyl)-3-oxopiperazin-1-yl]propoxy}-2,3-dihydro-1H-inden-4-yl)urea]",80 to 100,–
"CC(C)(C)c1cc(NC(=O)Nc2ccc(OCC(=O)N3CCn4c(nnc4-c4ccccc4SCCN4CCOCC4)C3)c3c2CCC3)n(-c2ccccc2)n1 [Compound 11, 1-(3-tert-butyl-1-phenyl-1H-pyrazol-5-yl)-3-(7-(2-[3-(2-{[2(morpholin-4-yl)ethyl]sulfanyl}phenyl)-5,6-dihydro[1,2,4]triazolo[4,3-a]pyrazin-7(8H)-yl]-2-oxoethoxy}-2,3-dihydro-1H-inden-4-yl)urea]",80 to 100,–
"CC(C)(C)c1cc(NC(=O)Nc2ccc(OCCN3CCN(CC4CC4)C(=O)C3)c3c2CCC3)n(-c2ccc(O)cc2)n1 [Compound 18, 1-[3-tert-butyl-1-(4-hydroxyphenyl)-1H-pyrazol-5-yl]-3-(7-{2-[4-(cyclopropylmethyl)-3-oxopiperazin-1-yl]ethoxy}-2,3-dihydro-1H-inden-4-yl)urea]",80 to 100,–
"COc1ccccc1-c1nnc2n1CCN(CCOc1ccc(NC(=O)Nc3cc(C(C)(C)C)nn3-c3ccc(O)c(Cl)c3)c3c1CCC3)C2 [Compound 25, 1-[3-tert-buty1-1-(3-chloro-4-hydroxyphenyl)-1H-pyrazol-5-yl]-3-(7-{2-[3-(2-methoxyphenyl)-5,6-dihydro[1,2,4]triazolo[4,3-a]pyrazin-7(8H)-yl]ethoxy}-2,3-dihydro-1H-inden-4-yl)urea]",–,P38α Inhibition: +++++ (+++++ = Inhibition ≥80% ≥ 100%)
"CCCSc1ccccc1-c1nnc2n1CCN(CCOc1ccc(NC(=O)Nc3cc(C(C)(C)C)cc(NS(=O)(=O)CC)c3OC)c3c1CCC3)C2 [Compound 50, N-[5-tert-butyl-2-methoxy-3-({[7-(2-{3-[2-(propylsulfanyl)phenyl]-5,6-dihydro[1,2,4]triazolo[4,3-a]pyrazin-7(8H)-yl}ethoxy)-2,3-dihydro-lH-inden-4-yl]carbamoyl}amino)phenyl] ethanesulfonamide]",–,P38α Inhibition: +++++ (+++++ = Inhibition ≥80% ≥ 100%)

# Further lines, with some results ahead:
inhibition at 1 µM (read-out: P38α Inhibition) [%],SMILES,other results
40 to 60,"Cc1ccc(-n2nc(C(C)(C)C)cc2NC(=O)Nc2ccc(OCCN3CCn4c(nnc4C4CCCCC4)C3)c3c2CCC3)cc1 [Compound 68, 1-[3-tert-butyl-1-(4-methylphenyl)-1H-pyrazol-5-yl]-3-{7-[2-(3-cyclohexyl-5,6-dihydro[1,2,4]triazolo[4,3-a]pyrazin-7(8H)-yl)ethoxy]-2,3-dihydro-1H-inden-4-yl}urea]",–
80 to 100,"CCCSc1ccccc1-c1nnc2n1CCN(CCOc1ccc(NC(=O)Nc3cc(C(C)(C)C)nn3-c3ccc(O)c(Cl)c3)c3c1CCC3)C2 [Compound 35, 1-[3-tert-butyl-1-(3-chloro-4-hydroxyphenyl)-1H-pyrazol-5-yl]-3-[7-(2-{3-[2-(propylsulfanyl)phenyl]-5,6-dihydro[1,2,4]triazolo[4,3-a]pyrazin-7(8H)-yl}ethoxy)-2,3-dihydro-1H-inden-4-yl]urea]",–
80 to 100,"CCCCN1CCN(CCOc2ccc(NC(=O)Nc3cc(C(C)(C)C)cc(NS(C)(=O)=O)c3OC)c3c2CCC3)CC1=O [Compound 44, N-{5-tert-butyl-3-[({7-[2-(4-butyl-3-oxopiperazin-1-yl)ethoxy]-2,3-dihydro-1H-inden-4-yl}carbamoyl)amino]-2-methoxyphenyl} methanesulfonamide]",–
< 20,"CC(=O)Nc1cc2c(s1)CCN(C(=O)COc1ccc(NC(=O)Nc3cc(C(C)(C)C)nn3-c3ccc(C4CCCCC4)cc3)c3c1CCC3)C2 [Compound 55, N-[5-({[7-({[3-tert-butyl-1-(4-cyclohexylphenyl)-1H-pyrazol-5-yl]carbamoyl}amino)-2,3-dihydro-1H-inden-4-yl]oxy}acetyl)-4,5,6,7-tetrahydrothieno[3,2-c]pyridin-2-yl]acetamide]",–
80 to 100,Cc1ccc(-n2nc(C(C)(C)C)cc2NC(=O)Nc2ccc(OCCN3CCn4c(nnc4-c4cc(Cl)ccc4O)C3)c3c2CCC3)cc1 [Compound 38],–
60 to 80,"CC(C)(C)c1cc(NC(=O)Nc2ccc(OCCN3CCN(CC4CC4)C(=O)C3)c3c2CCC3)n(-c2ccc(F)cc2)n1 [Compound 60, 1-[3-tert-butyl-1-(4-fluorophenyl)-1H-pyrazol-5-yl]-3-(7-{2-[4-(cyclopropylmethyl)-3-oxopiperazin-1-yl]ethoxy}-2,3-dihydro-1H-inden-4-yl)urea]",–
40 to 60,"Cc1ccc(-n2nc(C(C)(C)C)cc2NC(=O)Nc2ccc(OCCN3CCn4c(nnc4-c4oc5ccccc5c4C)C3)c3c2CCC3)cc1 [Compound 69, 1-[3-tert-butyl-1-(4-methylphenyl)-1H-pyrazol-5-yl]-3-(7-{2-[3-(3-methyl-1-benzofuran-2-yl)-5,6-dihydro[1,2,4]triazolo[4,3-a]pyrazin-7(8H)-yl]ethoxy}-2,3-dihydro-1H-inden-4-yl)urea]",–
80 to 100,"CCCSc1ccccc1-c1nnc2n1CCN(CCOc1ccc(NC(=O)Nc3cc(C(C)(C)C)nn3-c3ccc(C)cc3)c3c1CCC3)C2 [Compound 33, 1-[3-tert-butyl-1-(4-methylphenyl)-1H-pyrazol-5-yl]-3-[7-(2-{3-[2-(propylsulfanyl)phenyl]-5,6-dihydro[1,2,4]triazolo[4,3-a]pyrazin-7(8H)-yl}ethoxy)-2,3-dihydro-1H-inden-4-yl]urea]",–
< 20,"CCOC(=O)c1c(NC(=O)C2CC2)sc2c1CCN(C(=O)COc1ccc(NC(=O)Nc3cc(C(C)(C)C)nn3-c3ccc(C)cc3)c3c1CCC3)C2 [Compound 54, ethyl 6-({[7-({[3-tert-butyl-1-(4-methylphenyl)-1H-pyrazol-5-yl]carbamoyl}amino)-2,3-dihydro-1H-inden-4-yl]oxy}acetyl)-2-[(cyclopropylcarbonyl)amino]-4,5,6,7-tetrahydrothieno[2,3-c]pyridine-3-carboxylate]",–
60 to 80,"Cc1ccc(-n2nc(C(C)(C)C)cc2NC(=O)Nc2ccc(OCCN3CCn4c(nnc4-c4cccc5ccccc45)C3)c3c2CCC3)cc1 [Compound 67, 1-[3-tert-butyl-1-(4-methylphenyl)-1H-pyrazol-5-yl]-3-(7-{2-[3-(naphthalen-1-yl)-5,6-dihydro[1,2,4]triazolo[4,3-a]pyrazin-7(8H)-yl]ethoxy}-2,3-dihydro-1H-inden-4-yl)urea]",–
